Measured values from US20230088286A1, “USP7 INHIBITOR FOR USE IN THE TREATMENT OF CANCER” (ALMAC DISCOVERY LIMITED, priority 2020, published 2023).
Residues, ends and D or L forms follow the SMILES beside them. *: point of attachment. Cbz = O=C(OCc1ccccc1)*

Columns and labels:
[1] = system: primary human fibroblasts (HDF) in hypoxic chamber; test: sVEGF ELISA in primary fibroblasts under hypoxia; format: cell-based; conditions: 48 h
Description: FIG. 9: USP7 inhibition decreases VEGF levels in fibroblasts under hypoxia.
In response to wounding and during tumour growth, activated fibroblasts secrete synthesizers and modifiers of the ECM but also soluble angiogenic growth factors such as VEGF. Although VEGF gene expression can be controlled by multiple transcription factors, its major regulator is hypoxia-inducible factor 1 (HIF-1). HIF-1 mediates activation of VEGF transcription in response to hypoxia in solid tumours and in various malignant cell lines.
To assess its potency in a functional assay, HDF were treated with vehicle or various concentrations of USP7 inhibitor ADC-159 and incubated for 48 hours in hypoxic chamber. Cell culture supernatants were collected, and secreted VEGF was measured by ELISA.
(§1) For the co-culture experiments, 5×10^4 cancer cells were seeded in transwell in 0.5 mL complete growth medium and placed on the top of 0.1×10^6 fibroblasts plated in 12-well in 1 mL low serum growth media overnight. Following day cancer cells were washed with PBS and media replaced with reduced (1%) serum growth media. 0.5×10^6 PBMC were plated on top of fibroblasts, incubated for 45 min and activated with CD3 (1 μg/ml final concentration) and CD28 (5 μg/ml final concentration). […] Monoculture experiments, 0.1×10^6 cells were seeded in 12-well in 1 mL of complete growth media (cancer cells) or low serum growth media (fibroblasts) and incubated overnight. […] Afterwards, cell culture media was collected, cell debris were removed by centrifugation the concentration of VEGF in the cell culture supernatants was measured using the human/mouse VEGF immunoassay Quantikine ELISA kit (R&D systems, Minneapolis, Minn., USA) according to the manufacturer's instructions. For the intracellular VEGF detection, total protein concentration was determined by BCA (Pierce Chemical, USA) and VEGF levels determined using the same kit described above.

HIF-1α = test: Ubiquitination assay, TUBE pull-down of polyubiquitinated HIF-1α; format: cell-based, human; conditions: HDF, hypoxia; AD-04 1 μM, MG132 10 μM, 1 hour
Experimental: Given HIF-1α stability is known to be regulated at the protein level by ubiquitination, we investigated whether USP7 inhibition modulates HIF-1α polyubiquitination. […] Cells were harvested, lysed and polyubiquitinated proteins pulled down using two types of Tetra Ubiquitin Binding Entities (TUBES); with equal affinity for K48/K63 or 10 times more affinity for […]. Samples were analysed by immuno-blot using a HIF-1α antibody. […] These findings indicate that USP7 inhibition results in K48 polyubiquitination of HIF-1α and consequently, its proteasomal-mediated degradation.
Cells were lysed in a buffer containing 50 mM Tris-HCl, pH 7.5, 150 mM NaCl, 1 mM EDTA, 1% NP-40, 10% Glycerol, 50 mM NaF, 5 mM sodium pyrophosphate, 10 mM glycerol phosphate, 1 mM sodium orthovanadate, protease and phosphatase inhibitor tablet and 50 uM PR-619. Lysates were pre-cleared by centrifugation at 4° C. for 15 mins at 16,000× g and protein concentration determined using BCA method. 20 ul of samples was taken as input. Pre-cleared supernatant containing 0.5 mg of total protein was added to 20 ul equilibrated Agarose-TUBE 1 or TUBE 2 beads (Life Sensors) and incubated for 2 hours at 4° C. on a rocker platform. Beads were collected by low speed centrifugation (1000-5000× g, 4° C.) for 5 minutes and supernatant taken as FT. Beads were washed twice with 1 ml TBS-T (20 mM Tris-HCl, pH 8.0, 0.15M NaCl, 0.1% Tween-20) and collected by low speed centrifugation. Finally, beads were resuspended in 30 ul of SDS reducing sample buffer and boiled for 10 min at 95° C.

[2] = system: activated primary fibroblasts WI38, IMR90 and HDF; test: sVEGF ELISA in activated primary fibroblasts; format: cell-based, human; conditions: cancer cells, immortalized fibroblasts and FGF-2 activated primary fibroblasts, normoxia or hypoxia, 48 hours
Description: FIG. 5: USP7 inhibition decreased secreted VEGF levels in activated fibroblasts. The USP7-mediated decrease in VEGF secretion observed in the co-cultures can be solely attributed to modulation of secreted VEGF in primary fibroblasts.
(FIG. 4). […] During the wound healing process or following stimulation by acute or chronic inflammatory signals, fibroblasts acquire an activated phenotype (referred to as myofibroblasts). Once activated, myofibroblasts proliferate and migrate, show contractile activity, exert physical forces to modify tissue architecture and become transcriptionally active leading to the secretion of cytokines, chemokines and extra-cellular matrix (ECM) components. In the tumour microenvironment, the majority of residual fibroblasts become activated and are known as cancer associated fibroblasts (CAF). In order to generate a myofibroblast phenotype, WI38, IMR90 and HDF were co-cultured with anti-CD3/anti-CD28 stimulated PBMCs or were stimulated by FGF-2 or TGFβ. […] The USP7 inhibitor-mediated decrease in VEGF secretion was only observed in primary fibroblasts; immortalized lung fibroblasts (WI38-VA13) were insensitive to USP7 inhibitor treatment, probably due to the destabilized p53 in the SV-40 immortalized fibroblasts (FIG. 7).
as §1

[3] = system: CT-26 cells in BALB/C mice; test: CT-26 syngeneic tumour model (AD-04 study)
Experimental: FIG. 30: Effect of USP7 on the tumour microenvironment in vivo.
For subcutaneous tumour implantation, CT26 cells were injected subcutaneously (1×10^6cells in 200 μL of RPMI) in the right flank of 8- to 10-week-old BALB/c female mice. […] Tumour volume (in mm^3) was measured twice a week with a digital caliper and calculated by the following formula: volume=(width)^2×length/2. Body weight was measured twice a week. […]

MMP-2 = MMP-2 in supernatants of HDF and HUVEC co-culture (Luminex); format: cell-based, human; conditions: supernatants after 14 days
Experimental: Cell culture supernatants from tube formation were collected and MMP-2 levels were measured using Luminex®.
Next, the underlying mechanism of tube formation inhibition was investigated. […] To determine whether secretion of MMP-2 is modulated by USP7 inhibition, supernatants from HUVEC and HDF co-cultures were collected after 14 days.
(§2) Concentrations of MMP2 and MMP7 were determined in cell culture supernatants in triplicates using Luminex human cytokine/chemokine multiplex kits (Millipore, St. Charles, Mo., USA) according to the manufacturer's protocol.

MMP-7 = MMP-7 in supernatants of HDF invasion assay (Luminex); format: cell-based, human; conditions: invading HDF, 96 hours
Experimental: The scratch wound cell invasion assay was used to measure the ability of primary human fibroblasts to invade through Matrigel® basement membrane. Cell culture supernatants from invasion assay were collected after 96 hours and MMP-7 levels were measured using Luminex®.
To further explore whether USP7 inhibition modulates MMP levels in invading fibroblasts, cell culture supernatants from HDF invasion assay were collected and presence of various MMP was detected using Luminex® Multiplex assay.
as §2

| Compound | VEGF secretion under hypoxia [1] | secretion of VEGF (benchmark against MDM2 antagonists) [2] | also measured |
| --- | --- | --- | --- |
| O=C(c1cnc(C2CC2)o1)N1CCC(O)(Cn2cnc3c(cc(Cl)n3-c3ccc4c(c3)CCO4)c2=O)CC1 [ADC-160, 6-Chloro-3-((1-(2-cyclopropyloxazole-5-carbonyl)-4-hydroxypiperidin-4-yl)methyl)-7-(2,3-dihydrobenzofuran-5-yl)-3,7-dihydro-4H-pyrrolo[2,3-d]pyrimidin-4-One] | Comparable results | – | – |
| CC1(C(=O)N2CCC(O)(Cn3cnc4c(cc(Cl)n4-c4ccc5c(c4)OCC5)c3=O)CC2)CC1 [ADC-198, 6-Chloro-7-(2,3-dihydrobenzofuran-6-yl)-3-[[4-hydroxy-1-(1-methylcyclopropanecarbonyl)-4-piperidyl]methyl]pyrrolo[2,3-d]pyrimidin-4-One] | Comparable results | – | – |
| O=C(c1cnc(C2CC2)o1)N1CCC(O)(Cn2cnc3c(cc(Cl)n3-c3ccc4c(c3)OCC4)c2=O)CC1 [ADC-199, 6-Chloro-3-((1-(2-cyclopropyloxazole-5-carbonyl)-4-hydroxypiperidin-4-yl)methyl)-7-(2,3-dihydrobenzofuran-6-yl)-3,7-dihydro-4H-pyrrolo[2,3-d]pyrimidin-4-One] | Comparable results | – | – |
| CC1(C(=O)N2CCC(O)(Cn3cnc4c(cc(Cl)n4-c4ccc5c(c4)OCO5)c3=O)CC2)CC1 [ADC-556, 7-(Benzo[d][1,3]dioxol-5-yl)-6-chloro-3-((4-hydroxy-1-(1-methylcyclopropane-1-carbonyl)piperidin-4-yl)methyl)-3,7-dihydro-4H-pyrrolo[2,3-d]pyrimidin-4-One] | Comparable results | – | – |
| CC(C)C[C@@H](C=O)NC(=O)[C@H](CC(C)C)NC(=O)[C@H](CC(C)C)NC(=O)OCc1ccccc1 [MG132, reference compound] (Cbz-Leu-Leu-Leu-aldehyde) | – | – | K63/K48 polyubiquitinated HIF-1α (HIF-1α): increased polyubiquitination |
| COc1ccc(C2=N[C@@H](c3ccc(Cl)cc3)[C@@H](c3ccc(Cl)cc3)N2C(=O)N2CCNC(=O)C2)c(OC(C)C)c1 [Nutlin-3a] | – | not able to modulate | – |
| CCOc1cc(C(C)(C)C)ccc1C1=N[C@@](C)(c2ccc(Cl)cc2)[C@@](C)(c2ccc(Cl)cc2)N1C(=O)N1CCN(CCCS(C)(=O)=O)CC1 [RG7112] | – | not able to modulate | – |
| CC(C)(C)C[C@@H]1N[C@@H](C(=O)N[C@H]2CC[C@H](O)CC2)[C@H](c2cccc(Cl)c2F)[C@]12C(=O)Nc1cc(Cl)ccc12 [SAR405838] | – | not able to modulate | – |
| CNC(=O)c1cc(Oc2ccc(NC(=O)Nc3ccc(Cl)c(C(F)(F)F)c3)cc2)ccn1 [Sorafenib, reference compound] | – | – | tumour growth inhibition ([3]; highest AD-04 dose (subcutaneous infusion), Sorafenib oral positive control, day 15 post tumour implantation): 58%; tolerability, bodyweight of tumour-bearing mice ([3]; mouse, in vivo): no significant bodyweight loss |
| Avastin: anti-VEGF monoclonal antibody bevacizumab [reference compound] | – | – | MMP-2 levels (MMP-2): did not have significant impact; MMP-7 levels (MMP-7): did not have significant effect |
